The values below are quoted from earlier work in US11039992B2, “Stable redox compositions and methods of use” (Reoxcyn, LLC, priority 2017, dated 2021).

Molecules are shown by their SMILES.

For this data set the following is noted: pH-neutral aqueous solution (pH around 7.0) at room temperature.

With `O=[O+][O-]` [ozone], the half-life entry is listed as “about 20 minutes”.
